Data as given in patent US10227290B2, “Glycosphingolipids for use in modulating immune responses” (The Regents of the University of California, priority 2012, dated 2019).

Columns and labels:
[1] = system: Peripheral blood mononuclear cells (PBMCs), CD3+Vα24+ NKT cells; experiment: In vitro expansion of CD3+Vα24+ NKT cells from human PBMCs; assay type: cell-based; conditions: 13 days; 0.1 μg/ml KRN7000, 1 μg/ml α-GalCerBf, 1 μg/ml ceramideBf
Description: FIGS. 6A and 6B illustrate that α-GalCerBf binds human CD1d and activates human NKT cells in vitro. FIG. 6A: PBMCs were cultured for 13 days with 0.1 μg/mlKRN7000, 1 μg/ml α-GalCerBf, or 1 μg/ml ceramideBf. Dot plots show CD3^+Vα24^+NKT cells pre- and post-expansion. The data shown are representative of at least two individual experiments performed with six individual donors. FIG. 6B: Human NKT cells were purified after two rounds of expansion with 1 μg/ml α-GalCerBf and restimulated with 10 μg/ml α-GalCerBf in the presence or absence of control Ig or anti-Cd1d blocking antibodies. IFN-γ secretion was measured in supernatants 40-48 hours later. Data are representative of two independent experiments.
The capability of α-GalCerBf to stimulate freshly isolated NKT cells was determined. A first experiment was performed to determine whether Vα24^+ cells could be expanded in vitro with α-GalCerBf as previously described for KRN7000 (see, e.g., Rogers et al., J. Immunol. Meth. 285:197-214 (2004)). Peripheral blood mononuclear cells (PBMCs) were cultured with 0.1 μg/ml KRN7000, 1 μg/ml α-GalCerBf, or 1 μg/ml ceramideBf for 13 days. The presence of CD3 Vα24^+ cells was then assessed by flow cytometry. At least two individual experiments performed with six individual donors. […] IFN-γ secretion was measured in supernatants 40-48 hours later.

liver NKT cells = experiment: In vivo activation of NKT cells by transfer of sphingolipid-pulsed BMDCs; set-up: species or system C57BL/6 mice; conditions: without re-stimulation; BMDCs pulsed with α-GalCerBf
Description: FIGS. 7A-7F illustrate that α-GalCerBf activates NKT cells in vivo. Bone marrow-derived dendritic cells (BMDCs) were pulsed in vitro with LPS only or LPS+α-GalCerBf for 24 hr. Then 0.4×10^6 cells were treated with control Ig or anti-CD1d blocking antibody and then transferred to WT mice. Liver mononuclear cells were analyzed 16-18 hr later. Data shown were pooled from three independent experiments. FIGS. 7A-7C: Expression of CD25 and CD69 on gated CD3^+tetramer^+ cells. Representative flow cytometry plots and pooled data showing fold change of CD25 and CD69 surface expression compared to NKT cells isolated from mice transferred with LPS-pulsed BMDCs. FIGS. 7D and 7E provide representative flow cytometry plots and pooled data, respectively, of intracellular IFN-γ expression on gated CD3^+ tetramer^+ cells. FIG. 7F presents serum IFN-γ levels. […]
Mice were sacrificed 16-18 hr after transfer of 0.4×10^6 mature CD86^hiMHCII^hi BMDCs. […] All isolations were performed in the presence of brefeldin A. After cell surface staining, cells were fixed in Cytofix/Cytoperm (BD Biosciences) according to the manufacturer's instructions and stained for intracellular cytokines Serum IFN-γ was measured by ELISA. […]
As described herein, because α-GalCerBf is an agonist of NKT cell hybridomas and freshly isolated NKT cells in culture, the capability of α-GalCerBf to activate NKT cells in vivo was determined. […]

[2] = system: cyclophosphamide (CY) induced diabetes; experiment: Cyclophosphamide-induced diabetes mouse model; assay type: in vivo, NOD mice; conditions: 25 μg intraperitoneally on days 0, 2, 4, 6, 8; diabetic = blood glucose above 250 mg/dL; 100% of DMSO controls diabetic
Description: FIG. 8 presents a graph illustrating the percent of animals that developed diabetes in a cyclophosphamide-induced diabetes mouse model. Groups of animals received DMSO only, α-GalCerBf, or KRN7000. Number of animals is represented by n. Mice were considered diabetic when blood glucose was above 250 mg/dL. Blood glucose levels were measured at the time point shown. Data are representative of three independent experiments. KRN7000 prevents cyclophosphamide (CY) induced diabetes in a Non-Obese Diabetic (NOD) mouse model (see, e.g., Sharif et al., Nat. Med. 7:1057-62 (2001)). Prevention of diabetes in this model is believed to be associated with suppression of T and B cell responses to islet antigens as well as a polarization towards TH2-like responses (see Sharif, supra). This example describes the effect of α-GalCerBf in the CY induced diabetes mouse model. Groups of twelve-week old NOD female mice were given 300 mg/kg cyclophosphamide intraperitoneally on day 0. Groups of mice received DMSO (n=4), or 25 μg α-GalCerBf (n=7) or 5 μg KRN7000 (n=3) diluted in DMSO intraperitoneally on days 0, 2, 4, 6, and 8. Diabetes progression was monitored by measuring blood glucose at each time point (see FIG. 8). […] Kaplan-Meier survival curves were determined by a log-rank test using Prism software.

SMILES	Expansion of a population of CD3+Vα24+ cells [1]	Liver NKT cells expressing IFN-γ (liver NKT cells) [%]	Mice in which diabetes development was prevented [2]
CC(C)CCCCCCCCCCC[C@@H](O)CC(=O)N[C@@H](CO)[C@H](O)CCCCCCCCCCCC(C)C [ceramideBf]	did not show an expansion		
CC(C)CCCCCCCCCCC[C@@H](O)CC(=O)N[C@@H](CO[C@H]1OC(CO)[C@H](O)[C@H](O)C1O)[C@H](O)CCCCCCCCCCCC(C)C (stereo partly drawn) [α-GalCerBf]		15	more than 40%
